{"source": "patent US12076310B2", "about": "“Compounds and methods for the treatment of acute myelogenous leukemia” (University of Rochester, priority 2021, dated 2024)", "key": {"leukemia cell lines": {"test_system": "leukemia cell lines", "experiment": "Screening of hits and structural analogs for effects on proliferation of leukemia cell lines", "format": "cell-based, human", "settings": "dose range tested; data not shown"}, "[1]": {"test_system": "MOLM13, MV411, THP1 and U937 cells", "experiment": "Proliferation of cell lines by counting cells in a hemocytometer", "format": "cell-based, human", "settings": "range of concentrations, 72 hours", "procedure": "Effect of UR778Br on proliferation of cell lines: Proliferation of MOLM13, MV411, THP1 and U937 cells was measured by counting cells in a hemocytometer. Briefly, cells were seeded at 20,000 to 40,000 cells/well in triplicate wells of a 96 well plate and treated with a range of UR778Br doses and incubated at 37° C. with 5% CO2 in a humidified incubator. Cell counts were determined at 24-, 48- and 72 hours."}, "[2]": {"test_system": "MOLM13, MV411, THP1 and U937", "experiment": "Viability of cell lines by the MTS assay", "format": "cell-based, human", "settings": "range of concentrations, 48 hours", "procedure": "Effect of UR778Br on viability of cell lines: Viability of MOLM13, MV411, THIP1 and U937 was determined by the MTS assay. Briefly, 20,000 to 40,000 cells/well were seeded in triplicate wells of a 96 well plate and treated with a range of UR778Br doses and incubated for 48 to 72 hours at 37° C. with 5% CO2 in a humidified incubator. Cell Titre96R Aqueous One Solution Cell Proliferation Assay reagent (Promega Corp., catalog number: G3580) diluted 1-10 in complete RPMI medium was added and cells were incubated for 4 hours. The optical density (OD) values were read at 490 nm wavelength using BioRad iMark microplate reader. Experiments were performed in triplicates; data are expressed as the mean of the triplicate determinations (X±SD) of a representative experiment in % of absorbance by samples with untreated cells [=100%]."}, "[3]": {"test_system": "MOLM13, MV411, THP1 and U937 cells", "experiment": "Cell cycle analysis by flow cytometry", "format": "cell-based, human", "settings": "range of concentrations, 24 hours", "procedure": "Cell cycle analysis: For cell cycle analysis, Leukemia cell lines were washed with 1× phosphate buffered saline (PBS Mediatech, Inc., Manassas, VA, USA) and centrifuged at 1200 rpm for 8 minutes. Cell pellet was re-suspended in 100 microliters of Cytofix/Cytoperm™ (BD Biosciences, Cat No. 554722) buffer for at room temperature (RT) for 15 minutes. Cell suspension washed with 1×PBS and centrifuged at 1200 rpm for 8 minutes and re-suspended in 1 ml of culture media containing 1 μl of Vybrant® DyeCycler™ Violet Stain (ThermoFisher Scientific, Cat No. V35003). Cell suspensions were incubated at 37° C. in a 5% CO2 incubator for least 30 minutes. Cell suspensions were analyzed using a LSRII™ flow cytometer (BD Biosciences, San Jose, CA, USA). A minimum of 8,000 cells were included in the analysis of each sample. Data were analyzed by FlowJo software (Tree Star, Ashland, OR, USA) and collected on linear scale for forward and side scatter (i.e., FSC and SSC, respectively) and on a linear scale for violet fluorescence channel […]."}, "[4]": {"test_system": "MOLM13, MV411, THP1 and U937 cells", "experiment": "Apoptosis by Western blot of cleaved PARP", "format": "cell-based, human", "settings": "25 μM, 24 hours", "procedure": "For measurement of apoptosis by Western blot the MOLM13, MV41, THP1 and U937 cells treated with UR778Br for 24 hours were lysed and expression of cleaved PARP, an indicator of apoptosis, was measured as described above."}, "IQGAP1": {"test_system": "IQGAP1", "experiment": "IQGAP1 expression in MOLM13 cells (immunoblot)", "format": "cell-based, human", "settings": "25 μM, 24 hours"}, "[5]": {"test_system": "MOLM13, MV411, THP1 and U937", "experiment": "Colony formation of leukemia cell lines in MethoCult", "format": "cell-based, human", "settings": "6.25 μM", "procedure": "Effect of UR778Br on colony formation cell lines: MOLM13, MV411, THP1 and U937 were added to MethoCult H4435 Enriched (Stem Cell Technologies, catalog number 04435) to achieve concentration of 2000 cells/ml, 500 cells/ml and 200 cells/ml. UR778br was added to achieve a range of concentrations. Each condition was done in triplicate. The plates were incubated at 37° C. with 5% CO2 in a humidified incubator Colonies were counted at 7, 14 and 21 days."}, "normal bone marrow cells": {"test_system": "normal bone marrow cells", "experiment": "Colony formation by normal bone marrow in MethoCult", "format": "cell-based, human", "procedure": "Effect of UR778Br on colony formation by normal bone marrow: Vials of cryopreserved aliquots were thawed the in a 37° C. water bath. Nine ml of RPMI with 2% FBS were added dropwise to the cells in 1 ml of freezing media, centrifuged at 1000 rpm for 5 min and re-suspended in 5 ml of RPMI. The cells were counted in a hemocytometer and viability estimated by Trypan blue dye exclusion. The cells were added to MethoCult H4435 Enriched (Stem Cell Technologies, catalog number 04435) to achieve concentrations of 5×10^4 to 1×10^5 viable cells/ml. UR778Br was added at indicated concentrations. The mixture was vortexed and allowed to settle. Each condition was dispersed in triplicate or quadruplicate. The plates were incubated at 37° C. with 5% CO2 in a humidified incubator and colonies were counted at 7, 14 and 21 days. Images of colony forming unit assays were acquired using the Celligo imaging cytometer (Nexcelom Biosciences) at a resolution of 1 pixel/μm. Celligo instrument software was used for image processing."}, "primary human AML cells": {"test_system": "primary human AML cells", "experiment": "Viability of primary AML cells (annexin-V/DAPI flow cytometry)", "format": "cell-based", "settings": "dose range, 48 hours", "procedure": "Effect of UR778Br on apoptosis in primary AML cells: Primary AML cells were treated with DMSO or varying concentrations of UR778Br and cytarabine 5 μM and cultured in a 37° C., 5% CO2 incubator for 24 and 48 hours. The cells were stained for 15 min in annexin-V binding buffer (10 mM HEPES/NaOH, pH 7.4, 140 mM NaCl, 2.5 mM CaCl2)) containing annexin-V-APC antibody (BD Biosciences) and DAPI (Sigma). Stained cells were analyzed immediately on using a LSRII™ flow cytometer (BD Biosciences, San Jose, CA, USA).\nEffect of UR778Br on viability of primary human AML cells: Vials of primary AML cells cryopreserved in liquid nitrogen were thawed rapidly in a 37° C. water bath. The contents, generally one ml, were transferred to a 15 ml conical tube, one tenth the volume of DNase was added (bovine pancreas deoxyribonuclease, Sigma Aldrich D4263-5VL), it was mixed gently and incubated in a 37° C. water bath for 90 seconds. 9 ml of DMEM with 2% FBS was added dropwise and mixed gently. Samples were then centrifuged for 5 to 6 minutes, aspirated and the supernatant discarded. […] The cells were counted in a hemocytometer with viability estimated by Trypan blue dye exclusion.\nPrimary cells were cultured in 37° C., 5% CO2 incubator. […] Stained cells were analyzed immediately on BD FACS Celesta, flow cytometer (BD Biosciences). Viable cells were scored as annexin-V and DAPI double negative cells."}, "primary AML cells": {"test_system": "primary AML cells", "experiment": "Clonogenicity of primary AML cells in MethoCult", "format": "cell-based, human", "procedure": "Effect of UR778Br on clonogenicity of primary AML cells: Vials of primary AML cells cryopreserved in liquid nitrogen were thawed rapidly in a 37° C. water bath. The contents, generally one ml, were transferred to a 15 ml conical tube, one tenth the volume of DNase was added (bovine pancreas deoxyribonuclease, Sigma Aldrich D4263-5VL), it was mixed gently and incubated in a 37° C. water bath for 90 seconds. 9 ml of DMEM with 2% FBS was added dropwise and mixed gently. Samples were then centrifuged for 5 to 6 minutes, aspirated and the supernatant discarded. 70 μl of DNase were added and mixed gently. 10 ml of DMEM with 2% FBS was added slowly to resuspend and then the sample was centrifuged for 5 to 6 minutes. Supernatant was discarded, 50 μl of DNase was added, sample was mixed gently and the pellet was resuspended in 5 ml of IMDM+10% FBS, L-glutamine 2 mM (GIBCO) and penicillin and streptomycin (50 units and 50 mcg/ml). The cells were counted in a hemocytometer with viability estimated by Trypan blue dye exclusion.\nThe cell suspension was then added to MethoCult Enriched H4435 (Stem Cell Technologies, catalog number 04435) to achieve a final concentration between 5×10^4 to 2×10^5/ml. DMSO, UR778Br or cytarabine were added to achieve indicated concentrations. […] The plates were incubated 37° C., 5% CO2 incubator and colonies were counted at 7, 14 and 21 days. […]"}}, "note": "“Also recorded” adds a separate entry of the source.", "data": [{"smiles": "CCCCN1C(=O)C(O)(CC(=O)c2ccccc2O)c2cc(Br)ccc21", "note": "(stereo not shown) [UR778Br]", "values": [{"measurement": "inhibition of proliferation of leukemia cells (anti-proliferative activity)", "setting": "leukemia cell lines", "value": "most potent structural analog of AK778"}, {"measurement": "proliferation", "setting": "[1]", "value": "dose dependent reduction of proliferation"}, {"measurement": "viability", "setting": "[2]", "value": "decreased viability in AML cell lines in a dose-dependent fashion; also recorded: dose-dependent decrease in viability"}, {"measurement": "cell cycle arrest", "setting": "[3]", "value": "cell cycle arrest in the G2M phase in a dose-dependent manner; also recorded: dose-dependent arrest in G2/M phase of the cell cycle"}, {"measurement": "apoptosis (expression of cleaved PARP)", "setting": "[4]", "value": "apoptosis in MOLM13 cells"}, {"measurement": "apoptosis (expression of cleaved PARP)", "setting": "[4]; listed as UR778B2", "value": "apoptosis in the four cell lines"}, {"measurement": "expression of IQGAP1", "setting": "IQGAP1", "value": "decreased expression of IQGAP1"}, {"measurement": "colony formation units", "setting": "[5]", "value": "suppress clonogenic progenitors; also recorded: inhibition of the colony formation units"}, {"measurement": "colony formation by normal bone marrow", "setting": "normal bone marrow cells; 6.25 μM", "value": "did not inhibit colony formation by normal bone marrow; also recorded: majority of normal bone marrow samples do not exhibit reduced colony formation"}, {"measurement": "colony formation by normal primary bone marrow cells", "setting": "normal bone marrow cells; 12.5 μM compared with 6.25 μM", "value": "inhibition of the colony formation units to a greater degree than at 6.25 μM concentration"}, {"measurement": "viability (annexin-V and DAPI double negative cells)", "setting": "primary human AML cells", "value": "dose dependent decrease in viability"}, {"measurement": "colony formation by three primary AML cells", "setting": "primary AML cells; concentrations as low as 6.25 μM", "value": "blocks colony formation"}, {"measurement": "colony formation units of primary AML cells", "setting": "primary AML cells; varying concentrations", "value": "inhibition of the colony formation units"}]}]}
